From patent US8076059B2 (priority 2003, dated 2011)

Key:
Set-up in all cases: species or system mice
Settings in all cases: mouse, in vivo
peripheral mast cells = test system: peripheral mast cells
CD4 T-cells = test system: CD4 T-cells
anti-PA IgG = test system: anti-PA IgG

TNF-α
lymph node hypertrophy after direct injection into footpads (peripheral mast cells): marked lymph node hypertrophy | time of maximal lymph node growth (peripheral mast cells): 48 h

pertussis toxin
T-cell recruitment to draining lymph nodes after T-cell pretreatment (CD4 T-cells): inhibited T-cell recruitment to draining lymph nodes

cholera toxin [CT]
adjuvant activity, serum anti-PA IgG by ELISA on day 175 (anti-PA IgG): significant adjuvant activity over PA alone | adjuvant activity, serum anti-PA IgG geometric mean titers (anti-PA IgG): significant adjuvant activity at all doses tested
